Laboratory results as given in patent US9598424B2 (Takeda Pharmaceutical Company Limited, priority 2014, dated 2017).

Columns and labels:
Full length human TBK1 = biological target: T1, Full length human TBK1 (Homo sapiens, UniProt Q9UHD2); assay: Inhibition of TBK1 Enzyme (Caliper microfluidic assay); format: biochemical; details: 25 μM ATP, 60 min at RT; -log(IC50), IC50 molar; read-out: TBK1 Inhibition (pIC50) (converted)
T1 construct: Full length human TBK1 with an N-terminal His-tag; His-tag (N); made in house; host or cells: Sf9 insect cells (baculovirus, pFastBac1)
T1 sequence (Q9UHD2 1-729): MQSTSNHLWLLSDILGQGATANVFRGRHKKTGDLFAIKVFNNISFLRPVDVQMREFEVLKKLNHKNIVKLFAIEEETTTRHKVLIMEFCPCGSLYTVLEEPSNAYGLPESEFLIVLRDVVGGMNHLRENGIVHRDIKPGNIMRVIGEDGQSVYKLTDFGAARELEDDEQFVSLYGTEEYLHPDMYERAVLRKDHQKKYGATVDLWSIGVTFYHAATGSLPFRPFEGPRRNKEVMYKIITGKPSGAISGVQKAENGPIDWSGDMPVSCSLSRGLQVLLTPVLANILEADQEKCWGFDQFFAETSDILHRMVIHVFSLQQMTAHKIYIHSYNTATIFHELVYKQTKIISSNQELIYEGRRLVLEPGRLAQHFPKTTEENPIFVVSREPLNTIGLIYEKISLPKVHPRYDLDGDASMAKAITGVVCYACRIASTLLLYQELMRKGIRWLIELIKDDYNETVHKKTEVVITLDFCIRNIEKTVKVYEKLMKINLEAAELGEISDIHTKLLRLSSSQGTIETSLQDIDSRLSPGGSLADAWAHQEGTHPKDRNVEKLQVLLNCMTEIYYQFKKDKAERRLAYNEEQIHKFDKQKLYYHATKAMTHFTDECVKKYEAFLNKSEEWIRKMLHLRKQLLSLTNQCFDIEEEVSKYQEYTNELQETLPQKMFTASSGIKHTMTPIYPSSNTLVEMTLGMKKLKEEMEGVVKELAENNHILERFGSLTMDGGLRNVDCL
Outline: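 Enzyme: His-tagged full-length TBK1 expressed in Sf9. Reaction 60 min at RT in 20 mM Hepes pH 7.4, 10 mM MgCl2, 1 mM EDTA, 0.01% Brij-L23, 1 mM DTT, with 5FAM-peptide (added at 1 μM) and TBK1/ATP mix (added at 3 nM/25 μM), then EDTA-quenched. Conversion measured by microfluidic separation; 11-point 2.5-fold series fit to pIC50.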

TBK1 = biological target: T2, TBK1 (Homo sapiens, UniProt Q9UHD2); assay: Inhibition of TBK1 in Cells (TLR3 driven ISRE β-lactamase reporter assay); format: cell-based; details: poly IC-LMW stimulation 16 hrs; -log(EC50), EC50 molar; read-out: Inhibition of TBK1 in cells pEC50 (EC) (converted)
T2 construct: host or cells: RA1-ISRE beta-lactamase reporter cells
T2 sequence (Q9UHD2 1-729): T1 sequence (Q9UHD2 1-729)
Outline: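 RA1-ISRE β-lactamase reporter cells (50,000/well) treated with 11-point 2.5-fold compound dilutions and stimulated with 0.15 mg/ml poly IC-LMW for 16 hrs. Reporter read by CCF4-AM FRET; EC50 from non-linear fit of percent inhibition, reported as pEC50 (molar).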

Row | SMILES | IC50 (Full length human TBK1) | EC50 (TBK1)
1 | O=C(NC1CCOC1=O)c1nc(-c2ccc3nc(NC(=O)C4CC4)cn3c2)cs1 (stereo not shown) [Example 94, 4-(2-(cyclopropanecarboxamido)imidazo[1,2-a]pyridin-6-yl)-N-(2-oxotetrahydrofuran-3-yl)thiazole-2-carboxamide] | 200 nM | 5500 nM
2 | O=C(Nc1cn2cc(-c3csc(C(=O)N4CC(F)(F)C[C@H]4CO)n3)ccc2n1)C1CC1 [Example 96, (S)-N-(6-(2-(4,4-difluoro-2-(hydroxymethyl)pyrrolidine-1-carbonyl)thiazol-4-yl)imidazo[1,2-a]pyridin-2-yl)cyclopropanecarboxamide] | 63.1 nM | 851 nM
3 | COC1CCN(C(=O)c2nc(-c3ccc4nc(NC(=O)C5CC5)cn4c3)cs2)C1 (stereo not shown) [Example 97, N-(6-(2-(3-methoxypyrrolidine-1-carbonyl)thiazol-4-yl)imidazo[1,2-a]pyridin-2-yl)cyclopropanecarboxamide] | 126 nM | 1550 nM
4 | NC(=O)C1CCN(C(=O)c2nc(-c3ccc4nc(NC(=O)C5CC5)cn4c3)cs2)C1 (stereo not shown) [Example 98, 1-(4-(2-(cyclopropanecarboxamido)imidazo[1,2-a]pyridin-6-yl)thiazole-2-carbonyl)pyrrolidine-3-carboxamide] | 200 nM | 14500 nM
5 | N#CC1CN(C(=O)c2nc(-c3ccc4nc(NC(=O)C5CC5)cn4c3)cs2)C1 [Example 102, N-(6-(2-(3-cyanoazetidine-1-carbonyl)thiazol-4-yl)imidazo[1,2-a]pyridin-2-yl)cyclopropanecarboxamide] | 200 nM | 776 nM
6 | CC1CCN(C(=O)c2nc(-c3ccc4nc(NC(=O)C5CC5)cn4c3)cs2)C1 (stereo not shown) [Example 103, N-(6-(2-(3-methylpyrrolidine-1-carbonyl)thiazol-4-yl)imidazo[1,2-a]pyridin-2-yl)cyclopropanecarboxamide] | 79.4 nM | 794 nM
7 | C[C@@H](NC(=O)c1cc(-c2ccc3nc(NC(=O)C4CC4)cn3c2)n[nH]1)C(F)(F)F [Example 104, (R)-3-(2-(cyclopropanecarboxamido)imidazo[1,2-a]pyridin-6-yl)-N-(1,1,1-trifluoropropan-2-yl)-1H-pyrazole-5-carboxamide] | 5.01 nM | 166 nM
8 | O=C(Nc1cn2cc(-c3cc(C(=O)N4CCC(F)CC4)[nH]n3)ccc2n1)C1CC1 [Example 105, N-(6-(5-(4-fluoropiperidine-1-carbonyl)-1H-pyrazol-3-yl)imidazo[1,2-a]pyridin-2-yl)cyclopropanecarboxamide] | 316 nM | 5370 nM
9 | CN(CC(F)(F)F)C(=O)c1cc(-c2ccc3nc(NC(=O)C4CC4)cn3c2)n[nH]1 [Example 106, 3-(2-(cyclopropanecarboxamido)imidazo[1,2-a]pyridin-6-yl)-N-methyl-N-(2,2,2-trifluoroethyl)-1H-pyrazole-5-carboxamide] | 31.6 nM | 589 nM
10 | O=C(Nc1cn2cc(-c3cc(C(=O)N4CCC(F)C4)[nH]n3)ccc2n1)C1CC1 (stereo not shown) [Example 107, N-(6-(5-(3-fluoropyrrolidine-1-carbonyl)-1H-pyrazol-3-yl)imidazo[1,2-a]pyridin-2-yl)cyclopropanecarboxamide] | 63.1 nM | 2750 nM
11 | O=C(N[C@H]1COC[C@H]1O)c1nc(-c2ccc3nc(NC(=O)C4CC4)cn3c2)cs1 [Example 108, 4-(2-(cyclopropanecarboxamido)imidazo[1,2-a]pyridin-6-yl)-N-((3S,4S)-4-hydroxytetrahydrofuran-3-yl)thiazole-2-carboxamide] | 79.4 nM | 4370 nM
12 | O=C(NC1COCC1O)c1nc(-c2ccc3nc(NC(=O)C4CC4)cn3c2)cs1 (stereo not shown) [Example 109, 4-(2-(cyclopropanecarboxamido)imidazo[1,2-a]pyridin-6-yl)-N-(4-hydroxytetrahydrofuran-3-yl)thiazole-2-carboxamide] | 63.1 nM | 3240 nM
13 | O=C(Nc1cn2cc(-c3csc(C(=O)N4CCC(O)C4)n3)ccc2n1)C1CC1 (stereo not shown) [Example 112, N-(6-(2-(3-hydroxypyrrolidine-1-carbonyl)thiazol-4-yl)imidazo[1,2-a]pyridin-2-yl)cyclopropanecarboxamide] | 79.4 nM | 4370 nM
14 | O=C(Nc1cn2cc(-c3csc(C(=O)N4CC(O)C4)n3)ccc2n1)C1CC1 [Example 113, N-(6-(2-(3-hydroxyazetidine-1-carbonyl)thiazol-4-yl)imidazo[1,2-a]pyridin-2-yl)cyclopropanecarboxamide] | 126 nM | 2690 nM
15 | O=C(Nc1cn2cc(-c3csc(C(=O)N4CCCC4CO)n3)ccc2n1)C1CC1 (stereo not shown) [Example 114, N-(6-(2-(2-(hydroxymethyl)pyrrolidine-1-carbonyl)thiazol-4-yl)imidazo[1,2-a]pyridin-2-yl)cyclopropanecarboxamide] | 158 nM | 1620 nM
16 | O=C(NCC(O)C(F)(F)F)c1nc(-c2ccc3nc(NC(=O)C4CC4)cn3c2)cs1 (stereo not shown) [Example 115, 4-(2-(cyclopropanecarboxamido)imidazo[1,2-a]pyridin-6-yl)-N-(3,3,3-trifluoro-2-hydroxypropyl)thiazole-2-carboxamide] | 79.4 nM | 1510 nM
17 | O=C(Nc1cn2cc(-c3cc(C(=O)N4CCCC4)[nH]n3)ccc2n1)C1CC1 [Example 116] | 200 nM | 3020 nM
18 | CC(C)C(NC(=O)c1cc(-c2ccc3nc(NC(=O)C4CC4)cn3c2)cs1)C(F)(F)F (stereo not shown) [Example 117, 4-(2-(cyclopropanecarboxamido)imidazo[1,2-a]pyridin-6-yl)-N-(1,1,1-trifluoro-3-methylbutan-2-yl)thiophene-2-carboxamide] | 50.1 nM | 6460 nM
19 | O=C(NC1(C(F)(F)F)CC1)c1cc(-c2ccc3nc(NC(=O)C4CC4)cn3c2)cs1 [Example 118, 4-(2-(cyclopropanecarboxamido)imidazo[1,2-a]pyridin-6-yl)-N-(1-(trifluoromethyl)cyclopropyl)thiophene-2-carboxamide] | 31.6 nM | 676 nM
20 | O=C(Nc1cn2cc(-c3csc(C(=O)N(CCCO)CC(F)(F)F)c3)ccc2n1)C1CC1 [Example 119, 4-(2-(cyclopropanecarboxamido)imidazo[1,2-a]pyridin-6-yl)-N-(3-hydroxypropyl)-N-(2,2,2-trifluoroethyl)thiophene-2-carboxamide] | 10 nM | 331 nM
21 | O=C(Nc1cn2cc(-c3csc(C(=O)N(CCO)CC(F)(F)F)c3)ccc2n1)C1CC1 [Example 120, 4-(2-(cyclopropanecarboxamido)imidazo[1,2-a]pyridin-6-yl)-N-(2-hydroxyethyl)-N-(2,2,2-trifluoroethyl)thiophene-2-carboxamide] | 158 nM | 851 nM
22 | COCCN(CC(F)F)C(=O)c1cc(-c2ccc3nc(NC(=O)C4CC4)cn3c2)cs1 [Example 121, 4-(2-(cyclopropanecarboxamido)imidazo[1,2-a]pyridin-6-yl)-N-(2,2-difluoroethyl)-N-(2-methoxyethyl)thiophene-2-carboxamide] | 39.8 nM | 1120 nM
23 | O=C(NC1COC1)c1nc(-c2ccc3nc(NC(=O)C4CC4)cn3c2)cs1 [Example 122, 4-(2-(cyclopropanecarboxamido)imidazo[1,2-a]pyridin-6-yl)-N-(oxetan-3-yl)thiazole-2-carboxamide] | 126 nM | 3720 nM
